According to PMC11130353, “Using host-mimicking conditions and a murine cutaneous abscess model to identify synergistic antibiotic combinations effective against Pseudomonas aeruginosa” (Frontiers in Cellular and Infection Microbiology, 2024):
Values after ≈ are worked out from the molar mass of the structure shown. Read-outs that look alike come from different tables or passages of the source.

Columns and labels:
P. aeruginosa LESB58 [1] = experiment: Minimum bactericidal concentration; type: cell-based; settings: Pseudomonas aeruginosa
Method: (§1) For susceptibility testing under standard conditions, bacteria were cultured in Muller Hinton Broth MHB (Fort Richards Laboratories). Host mimicking conditions in vitro were simulated using tissue culture medium (TCM) consisting of Dulbecco’s modified Eagle medium (DMEM; Gibco #11965) supplemented with FBS (Moregate Biotech) (5% v/v) and glucose (1% w/v). Further susceptibility testing was also conducted in MHB supplemented with FBS (5% v/v) and DMEM supplemented with glucose (1% w/v) and MHB (10% v/v).
The minimum bactericidal concentration (MBC) was determined by spotting 5 μL from wells of the MIC plate at or above the MIC onto antibiotic free dYT agar. Plates were incubated at 37°C for another 22-24 hours. The MBC was recorded as the lowest antibiotic concentration with no visible growth on agar plates and the median value reported.

P. aeruginosa LESB58-lux = experiment: In vitro synergy, checkerboard assay (luminescence readout); type: cell-based, Pseudomonas aeruginosa; settings: TCM, LESB58-lux
Method: as §1
The P. aeruginosa LESB58.lux strain was used for in vitro synergy experiments with azithromycin in MHB and all antibiotic combinations in TCM to determine bacterial growth (as visual inspection and absorbance measurements were unreliable). Synergy was determined using the checkerboard method ([Berenbaum, 1978]; [Pletzer and Hancock, 2018]) in at least triplicate. Each antibiotic was two-fold serially diluted in sterile water before transferring to a 96-well plate containing 1 × 10^6 CFU mL^-1 bacteria in MHB or TCM. Plates were incubated at 37°C for 22-24 hours. The MIC alone or in combination was recorded as the lowest antibiotic concentration with no visible growth. For experiments using the LESB58.lux strain no visible growth was defined as an at least 95% reduction compared to the no antibiotic growth control in luminescence detected using a ClarioStar plate reader. The fractional inhibitory concentration index (FICI) was calculated as [(MICA in combination)/MICA] + [(MICB in combination)/MICB]. FICI values of 0.5 or below indicated synergy, while values above 0.5 up to and including 1 were taken to indicate additivity. FICI values above 1 indicate indifference or antagonism ([Odds, 2003]).

[2] = female, Swiss Webster, mouse, in vivo, sc, 1 day
Method: Mice used in this study were female Swiss Webster aged approximately 6-7 weeks and sourced from the University of Otago Biomedical Research Facility. […] Briefly, the fur on the back of each mouse was removed by shaving and chemical depilation. Antibiotics were tested for skin toxicity by injecting 50 μL of antibiotic suspension subcutaneously into naïve mice, and subsequent inspection of the skin for inflammation on the next day. P. aeruginosa LESB58 was grown to mid-log phase in dYT broth, washed twice in sterile PBS (Gibco, pH 7.4), and resuspended in PBS to ~1 x 10^8 CFU per 50 μL inoculum. The bacterial suspension (50 μL) was injected subcutaneously into the right side of the dorsum, followed one hour later by 50 μL of antibiotic treatment injected directly into the infected area. […] Combination treatments were administered as a single 50 μL injection containing both antibiotics. The concentration of each antibiotic in the combination was the same as when it was used alone. Progression of the infection was monitored daily, and abscess dimensions were measured on day three using a calliper. On day three, abscess tissue and pus were excised, homogenized in sterile PBS using SPEX SamplePrep 1600 MiniG for five minutes and bacterial CFU counts determined by serial dilution.

P. aeruginosa LESB58 [3] = experiment: microbe, parasite or virus in culture; type: cell-based, Pseudomonas aeruginosa; settings: for MIC in MHB / MIC in TCM: 20-24 h; for MIC: Pseudomonas aeruginosa; for MIC in TCM: TCM (DMEM + 1% glucose + 5% FBS)
Method: (§2) For susceptibility testing under standard conditions, bacteria were cultured in Muller Hinton Broth MHB (Fort Richards Laboratories). […] Further susceptibility testing was also conducted in MHB supplemented with FBS (5% v/v) and DMEM supplemented with glucose (1% w/v) and MHB (10% v/v).
The minimum inhibitory concentration (MIC) of each antibiotic was determined using the broth microdilution method in 96-well plates. […] Briefly, antibiotics were two-fold serially diluted in MHB or TCM prior to adding 1 × 10^6 CFU mL^-1 bacteria. […] The MIC was recorded as the lowest antibiotic concentration with no visible growth and the median value of at least three biological replicates reported.

P. aeruginosa PAO1 = experiment: Minimum inhibitory concentration, broth microdilution; type: cell-based, Pseudomonas aeruginosa; settings: for MIC: Pseudomonas aeruginosa, PAO1
Method: as §2
The minimum inhibitory concentration (MIC) of each antibiotic was determined using the broth microdilution method in 96-well plates. […] Briefly, antibiotics were two-fold serially diluted in MHB or TCM prior to adding 1 × 10^6 CFU mL^-1 bacteria. Plates were incubated at 37°C for 22-24 hours. The MIC was recorded as the lowest antibiotic concentration with no visible growth and the median value of at least three biological replicates reported.

P. aeruginosa LESB58 [4] = experiment: Murine high density subcutaneous skin abscess model; type: in vivo, Pseudomonas aeruginosa; settings: day 3; for Area of dermoncecrosis, Mean: female Swiss Webster mice
Method: Mice used in this study were female Swiss Webster aged approximately 6-7 weeks and sourced from the University of Otago Biomedical Research Facility. […] The subcutaneous abscess infection model was performed as previously described ([Pletzer et al., 2017]) with a higher inoculum. Briefly, the fur on the back of each mouse was removed by shaving and chemical depilation. Antibiotics were tested for skin toxicity by injecting 50 μL of antibiotic suspension subcutaneously into naïve mice, and subsequent inspection of the skin for inflammation on the next day. P. aeruginosa LESB58 was grown to mid-log phase in dYT broth, washed twice in sterile PBS (Gibco, pH 7.4), and resuspended in PBS to ~1 x 10^8 CFU per 50 μL inoculum. The bacterial suspension (50 μL) was injected subcutaneously into the right side of the dorsum, followed one hour later by 50 μL of antibiotic treatment injected directly into the infected area. […] Combination treatments were administered as a single 50 μL injection containing both antibiotics. The concentration of each antibiotic in the combination was the same as when it was used alone. Progression of the infection was monitored daily, and abscess dimensions were measured on day three using a calliper. On day three, abscess tissue and pus were excised, homogenized in sterile PBS using SPEX SamplePrep 1600 MiniG for five minutes and bacterial CFU counts determined by serial dilution. In this model, synergy was defined as being a significant difference between the combination treated group and the amalgamated group of single drug treated animals ([Fantin and Carbon, 1992]; [Pletzer et al., 2018]).
Statistical analysis was performed using GraphPad Prism 9.5.1. Bacterial CFU and abscess size data from in vivo experiments was analysed by Kruskal-Wallace test with Dunn’s correction for multiple comparisons. The data was considered significant when p-values were below 0.05 or 0.01 as indicated.

[5] = LESB58, TCM (DMEM + 1% glucose + 5% FBS)
[6] = LESB58, read-out: MIC in MHB, MHB, 20-24 h
[7] = LESB58, read-out: MIC in TCM, TCM (DMEM + 1% glucose + 5% FBS), 20-24 h
[8] = LESB58, TCM (DMEM + 1% Glucose + 10% MHB)
[9] = Colistin, tigecycline and tobramycin groups, compared to the vehicle control

Compound: NC(=O)[C@@H]1CC[C@@H]2CN1C(=O)N2OS(=O)(=O)O [AVI, avibactam]
- MBC (P. aeruginosa LESB58 [1]; LESB58, MHB): > 125 µg/mL
- MBC (P. aeruginosa LESB58 [1]; [5]): 62.5 µg/mL
- Fold decrease in CAZ MIC, drug combined with CAZ (P. aeruginosa LESB58-lux): 8
- Fold decrease in other MIC, drug combined with CAZ (P. aeruginosa LESB58-lux): 4
- FICI, drug combined with CAZ (P. aeruginosa LESB58-lux; FICI <= 0.5 indicates synergy): 0.38
- Highest tolerated dose tested [2]: 12 mg/mL
- MIC in MHB (P. aeruginosa LESB58 [3]; listed as Avibactam): no antimicrobial activity
- MIC in MHB (P. aeruginosa LESB58 [3]; listed as avibactam): not observed
- MIC (P. aeruginosa LESB58 [3]; [6]): > 125 µg/mL
- MIC (P. aeruginosa LESB58 [3]; [7]): 31.2 µg/mL
- MIC in TCM (P. aeruginosa LESB58 [3]; listed as Avibactam): significant antimicrobial activity
- MIC in TCM (P. aeruginosa LESB58 [3]; listed as avibactam): had anti-pseudomonal activity

Compound: CC(C)(O/N=C(\C(=O)N[C@@H]1C(=O)N2C(C(=O)[O-])=C(C[n+]3ccccc3)CS[C@H]12)c1csc(N)n1)C(=O)O [CAZ, ceftazidime]
- MBC (P. aeruginosa LESB58 [1]; LESB58, MHB): > 500 µg/mL
- MBC (P. aeruginosa LESB58 [1]; LESB58, MHB + 5% FBS): > 500 µg/mL
- MBC (P. aeruginosa LESB58 [1]; [8]): 500 µg/mL
- MBC (P. aeruginosa LESB58 [1]; [5]): > 500 µg/mL
- Fold change TCM vs MHB (MIC) (P. aeruginosa PAO1; MIC in TCM vs MIC in MHB): 8
- MIC (P. aeruginosa PAO1; read-out: MIC in MHB): 3.13 µg/mL (≈ 5.73 µM)
- MIC (P. aeruginosa PAO1; read-out: MIC in TCM): 25 µg/mL (≈ 45.7 µM)
- Highest tolerated dose tested [2]: 50 mg/mL
- Toxic (visible skin irritation, inflammation, blood vessels, swelling) [2]: 100 mg/mL
- CFU per abscess, Fold change (P. aeruginosa LESB58 [4]; Azithromycin group, compared to the vehicle control): -1.4
- CFU per abscess, Geometric mean (P. aeruginosa LESB58 [4]; Azithromycin group, CAZ or CZA 50 mg/mL, AZM 6.25 mg/mL): 2.6 × 10^8 CFU per abscess
- Area of dermoncecrosis, Mean (P. aeruginosa LESB58 [4]; Azithromycin group, 50 μL s.c. into infected area 1 h after infection, CAZ or CZA 50 mg/mL, AZM 6.25 mg/mL, vehicle citric acid in saline): 107.3 mm^2
- Area of dermoncecrosis, Mean (P. aeruginosa LESB58 [4]; Colistin, tigecycline and tobramycin groups (shared vehicle, CAZ and CZA mice), 50 μL s.c. 1 h after infection, CAZ or CZA 50, CST 1.25, TGC 2.5, TOB 2 mg/mL, vehicle 0.9% saline): 85.3 mm^2
- Area of dermoncecrosis, % reduction (P. aeruginosa LESB58 [4]; [9]): 9.2%
- CFU per abscess, Fold change (P. aeruginosa LESB58 [4]; [9]): -1.8
- CFU per abscess, Geometric mean (P. aeruginosa LESB58 [4]; Colistin, tigecycline and tobramycin groups): 1.3 × 10^8 CFU per abscess
- Fold increase MIC of CAZ or CZA (P. aeruginosa LESB58 [3]; MHB + 5% FBS compared to MHB): 8
- Fold increase MIC of CAZ or CZA (P. aeruginosa LESB58 [3]; MHB + 5% FBS compared to MHB, listed as ceftazidime): eight
- Fold change TCM vs MHB (MIC) (P. aeruginosa LESB58 [3]; MIC in TCM vs MIC in MHB): 4
- MIC (P. aeruginosa LESB58 [3]; LESB58, MHB + 5% FBS): 250 µg/mL
- MIC (P. aeruginosa LESB58 [3]; [8]): 62.5 µg/mL
- MIC (P. aeruginosa LESB58 [3]; [6]): 31.2 µg/mL (≈ 57.2 µM)
- MIC (P. aeruginosa LESB58 [3]; [7]): 125 µg/mL
- Fold increase MIC of CAZ or CZA (P. aeruginosa LESB58 [3]; TCM (DMEM + 1% Glucose + 10% MHB) compared to MHB): 2
- Fold increase MIC of CAZ or CZA (P. aeruginosa LESB58 [3]; TCM (DMEM + 1% Glucose + 10% MHB) compared to MHB, listed as ceftazidime): two
- Fold increase MIC of CAZ or CZA (P. aeruginosa LESB58 [3]; TCM (DMEM + 1% glucose + 5% FBS) compared to MHB): 4
- Fold increase MIC of CAZ or CZA (P. aeruginosa LESB58 [3]; TCM (DMEM + 1% glucose + 5% FBS) compared to MHB, listed as ceftazidime): four
